{"source": "patent US8440836B2", "about": "“Heterocyclic alkanol derivatives” (Bayer Intellectual Property GmbH, priority 2010, dated 2013)", "key": {"[1]": {"system": "Sphaerotheca fuliginea", "assay": "Sphaerotheca test (cucumber)/protective", "conditions": "cucumber plants, protective spray, 500 ppm active ingredient, evaluation 7 days after inoculation"}, "[2]": {"system": "Puccinia triticina", "assay": "Puccinia triticina test (wheat)/protective", "format": "in vivo", "conditions": "wheat plants, protective spray, 500 ppm active ingredient, evaluation 8 days after inoculation", "from_the_text": "Evaluation follows 8 days after the inoculation."}, "[3]": {"system": "Blumeria graminis f.sp. hordei", "assay": "Blumeria graminis test (barley)/protective", "format": "in vivo", "conditions": "barley plants, protective spray, 500 ppm active ingredient, evaluation 7 days after inoculation"}, "[4]": {"system": "Septoria tritici", "assay": "Septoria tritici test (wheat)/protective", "format": "in vivo", "conditions": "wheat plants, protective spray, 500 ppm active ingredient, evaluation 21 days after inoculation"}, "[5]": {"system": "Leptosphaeria nodorum", "assay": "Leptosphaeria nodorum test (wheat)/protective", "format": "in vivo", "conditions": "wheat plants, protective spray, 500 ppm active ingredient, evaluation 8 days after inoculation"}, "[6]": {"assay": "logP by HPLC (EEC Directive 79/831 Annex V.A8)", "format": "physicochemical", "conditions": "HPLC reversed-phase C18, method [a]: LC-MS, pH 2.7, 0.1% aqueous formic acid / acetonitrile, gradient 10% to 95% acetonitrile"}, "[7]": {"system": "Venturia inaequalis", "assay": "Venturia test (apple)/protective", "conditions": "apple plants, protective spray, 100 ppm active ingredient, evaluation 10 days after inoculation"}, "[8]": {"system": "Fusarium culmorum", "assay": "Fusarium test (wheat)/seed treatment", "format": "in vivo", "conditions": "dose 50 g/dt, greenhouse 20° C. 14 days", "description": "(§1) The test was conducted under greenhouse conditions. Wheat seeds treated with an inventive active compound or a combination of inventive active compounds were sown in 6×6 cm vessels, into a mixture of steamed field soil and sand (1:1). The test compound(s) were dissolved in N-methyl-2-pyrrolidone and diluted to the desired concentration with water. Wheat kernels were inoculated with spores of Fusarium culmorum. The infected and ground kernels were distributed between the treated wheat seeds. The seeds were covered with a top layer of clay granules and incubated in a greenhouse at 20° C. for 14 days. Evaluation was effected by counting the plants which emerged."}, "[9]": {"system": "Microdochium nivale", "assay": "Microdochium test (wheat)/seed treatment", "format": "in vivo", "conditions": "dose 50 g/dt, greenhouse 10° C. 21 days", "description": "as §1, with “Microdochium nivale.” for “Fusarium culmorum.”, “steamed field soil and sand (1:1)” for “clay granules”, “10°” for “20°”, “21” for “14”, “days.” for “days. Evaluation was effected by counting the plants which emerged.”"}, "[10]": {"system": "Leptosphaeria maculans", "assay": "Leptosphaeria test (oilseed rape)/seed treatment", "format": "in vivo", "conditions": "rapeseed treatment, dose 50 g/dt, greenhouse 10° C. 14 days and 18° C. 7 days", "description": "The test was conducted under greenhouse conditions. […] treated with an inventive active compound or a combination of inventive active compounds were sown in 6×6 cm vessels, into a mixture of steamed field soil and to sand (1:1). The test compound(s) were dissolved in N-methyl-2-pyrrolidone and diluted to the desired concentration with water. Perlite was inoculated with spores of Leptosphaeria maculans. The infected perlite was distributed between the treated […]. The seeds were covered with a top layer of steamed field soil and sand (1:1) and incubated in a greenhouse at 10° C. for 14 days and at 18° C. for 7 days."}, "[11]": {"system": "Rhizoctonia solani", "assay": "Rhizoctonia test (cotton)/seed treatment", "format": "in vivo", "conditions": "cottonseed treatment, dose 50 g/dt, greenhouse 20° C. 7 days", "description": "The test was conducted under greenhouse conditions. Cottonseeds treated with an inventive active compound or a combination of inventive active compounds were sown in 6×6 cm vessels, into a mixture of steamed field soil and sand (1:1). The test compound(s) were dissolved in N-methyl-2-pyrrolidone and diluted to the desired concentration with water. Perlite was inoculated with spores of Rhizoctonia solani. The infected perlite was distributed between the treated cottonseeds. The seeds were covered with a top layer of clay granules and incubated in a greenhouse at 20° C. for 7 days."}}}
{"smiles": "CC(C)(/C=C/Cl)C(O)(COc1ccc(I)cc1)c1cncs1", "note": "(stereo not shown) [Compound 53]", "values": [{"measurement": "efficacy", "setting": "[1]", "value": 94, "unit": "%"}, {"measurement": "efficacy", "setting": "[2]", "value": 100, "unit": "%"}, {"measurement": "efficacy", "setting": "[3]", "value": 94, "unit": "%"}, {"measurement": "efficacy", "setting": "[4]", "value": 100, "unit": "%"}, {"measurement": "efficacy", "setting": "[5]", "value": 83, "unit": "%"}, {"measurement": "logP", "setting": "[6]", "value": "logP 3.92^[a]; [M + H]^+ = 450"}]}
{"smiles": "CC(C)(C)C(O)(COc1ccc(C2CC2)cc1)c1cncs1", "note": "(stereo not shown) [Compound 79]", "values": [{"measurement": "efficacy", "setting": "[7]", "value": 100, "unit": "%"}, {"measurement": "efficacy", "setting": "[1]", "value": 93, "unit": "%"}, {"measurement": "efficacy", "setting": "[3]", "value": 100, "unit": "%"}, {"measurement": "efficacy", "setting": "[4]", "value": 88, "unit": "%"}, {"measurement": "efficacy", "setting": "[5]", "value": 86, "unit": "%"}, {"measurement": "logP", "setting": "[6]", "value": "logP 3.73^[a]; [M + H]^+ = 318"}]}
{"smiles": "CO/N=C/c1ccc(OCC(O)(c2cncs2)C(C)(C)C)cc1", "note": "(stereo not shown) [Compound 3]", "values": [{"measurement": "efficacy", "setting": "[7]", "value": 100, "unit": "%"}, {"measurement": "efficacy", "setting": "[2]", "value": 89, "unit": "%"}, {"measurement": "efficacy", "setting": "[3]", "value": 100, "unit": "%"}, {"measurement": "efficacy", "setting": "[4]", "value": 83, "unit": "%"}, {"measurement": "efficacy", "setting": "[5]", "value": 92, "unit": "%"}]}
{"smiles": "OC(Cc1cncs1)(Cc1ccccc1F)C1(Cl)CC1", "note": "(stereo not shown) [Compound 60]", "values": [{"measurement": "efficacy", "setting": "[7]", "value": 100, "unit": "%"}, {"measurement": "efficacy", "setting": "[1]", "value": 100, "unit": "%"}, {"measurement": "efficacy", "setting": "[2]", "value": 95, "unit": "%"}, {"measurement": "efficiency (emerged plants)", "setting": "[8]", "value": 89, "unit": "%"}, {"measurement": "efficiency (emerged plants)", "setting": "[9]", "value": 100, "unit": "%"}, {"measurement": "efficiency (emerged plants)", "setting": "[10]", "value": 80, "unit": "%"}, {"measurement": "efficacy", "setting": "[3]", "value": 100, "unit": "%"}, {"measurement": "efficacy", "setting": "[4]", "value": 94, "unit": "%"}, {"measurement": "efficacy", "setting": "[5]", "value": 100, "unit": "%"}, {"measurement": "logP", "setting": "[6]", "value": "logP 3.06^[a]; [M + H]^+ = 312"}, {"measurement": "efficiency (emerged and diseased plants)", "setting": "[11]", "value": 90, "unit": "%"}]}
{"smiles": "CC(C)(C)C(O)(COc1ccc(I)cc1)c1cncs1", "note": "(stereo not shown) [Compound 1]", "values": [{"measurement": "efficacy", "setting": "[7]", "value": 99, "unit": "%"}, {"measurement": "efficacy", "setting": "[1]", "value": 100, "unit": "%"}, {"measurement": "efficacy", "setting": "[2]", "value": 100, "unit": "%"}, {"measurement": "efficiency (emerged plants)", "setting": "[8]", "value": 100, "unit": "%"}, {"measurement": "efficiency (emerged plants)", "setting": "[10]", "value": 70, "unit": "%"}, {"measurement": "efficacy", "setting": "[3]", "value": 100, "unit": "%"}, {"measurement": "efficacy", "setting": "[4]", "value": 100, "unit": "%"}, {"measurement": "efficacy", "setting": "[5]", "value": 100, "unit": "%"}, {"measurement": "efficiency (emerged and diseased plants)", "setting": "[11]", "value": 70, "unit": "%"}]}
{"smiles": "CC(C)(C)C(O)(COc1ccc(Br)cc1)c1cncs1", "note": "(stereo not shown) [Compound 2]", "values": [{"measurement": "efficacy", "setting": "[7]", "value": 93, "unit": "%"}, {"measurement": "efficacy", "setting": "[1]", "value": 99, "unit": "%"}, {"measurement": "efficacy", "setting": "[2]", "value": 100, "unit": "%"}, {"measurement": "efficacy", "setting": "[3]", "value": 100, "unit": "%"}, {"measurement": "efficacy", "setting": "[4]", "value": 100, "unit": "%"}, {"measurement": "efficacy", "setting": "[5]", "value": 100, "unit": "%"}]}
{"smiles": "CC(C)(C)C(O)(COc1ccc(SC(F)(F)F)cc1)c1cncs1", "note": "(stereo not shown) [Compound 41]", "values": [{"measurement": "efficacy", "setting": "[7]", "value": 95, "unit": "%"}, {"measurement": "efficacy", "setting": "[1]", "value": 95, "unit": "%"}, {"measurement": "efficacy", "setting": "[2]", "value": 100, "unit": "%"}, {"measurement": "efficacy", "setting": "[3]", "value": 100, "unit": "%"}, {"measurement": "efficacy", "setting": "[4]", "value": 71, "unit": "%"}, {"measurement": "efficacy", "setting": "[5]", "value": 100, "unit": "%"}, {"measurement": "logP", "setting": "[6]", "value": "logP 3.98^[a]; [M + H]^+ = 378"}]}
{"smiles": "CC1(C(O)(COc2ccc(Cl)cc2)c2cncs2)CC1", "note": "(stereo not shown) [Compound 14]", "values": [{"measurement": "efficacy", "setting": "[7]", "value": 98, "unit": "%"}, {"measurement": "efficacy", "setting": "[1]", "value": 95, "unit": "%"}, {"measurement": "logP", "setting": "[6]", "value": "logP 3.11^[a]; [M + H]^+ = 310; 312"}]}
{"smiles": "CC(CF)(CF)C(O)(COc1ccc(I)cc1)c1cncs1", "note": "(stereo not shown) [Compound 4]", "values": [{"measurement": "efficacy", "setting": "[1]", "value": 100, "unit": "%"}, {"measurement": "efficacy", "setting": "[2]", "value": 100, "unit": "%"}, {"measurement": "efficacy", "setting": "[3]", "value": 100, "unit": "%"}, {"measurement": "efficacy", "setting": "[4]", "value": 100, "unit": "%"}, {"measurement": "efficacy", "setting": "[5]", "value": 100, "unit": "%"}, {"measurement": "chromatographic logP", "setting": "[6]; reversed-phase C18 HPLC column", "value": 3.16}]}
{"smiles": "CC1(C(O)(COc2ccc(Br)cc2)c2cncs2)CCCCC1", "note": "(stereo not shown) [Compound 33]", "values": [{"measurement": "efficacy", "setting": "[7]", "value": 99, "unit": "%"}, {"measurement": "efficacy", "setting": "[1]", "value": 100, "unit": "%"}, {"measurement": "efficacy", "setting": "[2]", "value": 83, "unit": "%"}, {"measurement": "efficacy", "setting": "[3]", "value": 89, "unit": "%"}, {"measurement": "logP", "setting": "[6]", "value": "logP 4.37^[a]; [M + H]^+ = 396/398"}]}
{"smiles": "OC(Cc1cncs1)(Cc1ccccc1Cl)C1(Cl)CC1", "note": "(stereo not shown) [Compound 57]", "values": [{"measurement": "efficacy", "setting": "[7]", "value": 100, "unit": "%"}, {"measurement": "efficacy", "setting": "[1]", "value": 100, "unit": "%"}, {"measurement": "efficiency (emerged plants)", "setting": "[8]", "value": 89, "unit": "%"}, {"measurement": "efficiency (emerged plants)", "setting": "[9]", "value": 78, "unit": "%"}, {"measurement": "efficiency (emerged plants)", "setting": "[10]", "value": 80, "unit": "%"}, {"measurement": "efficacy", "setting": "[3]", "value": 100, "unit": "%"}, {"measurement": "efficacy", "setting": "[4]", "value": 70, "unit": "%"}, {"measurement": "efficacy", "setting": "[5]", "value": 88, "unit": "%"}, {"measurement": "efficiency (emerged and diseased plants)", "setting": "[11]", "value": 80, "unit": "%"}]}
